In patent US5719278A, “Tricyclic benzazepine vasopressin antagonists” (American Cyanamid Company, priority 1996, dated 1998):

Assays:
oxytocin receptors = target: T1, oxytocin receptors (Rattus norvegicus, UniProt P70536); test: Oxytocin Receptor Binding; set-up: species or system Sprague-Dawley rat; details: for IC50: 1.0 nM [^3 H]OT, 60 min., 22° C.
T1 construct: The uteri are dissected out, cleaned of fat and connective tissues; from tissue; host or cells: uterus of DES-treated female Sprague-Dawley rats
T1 sequence (P70536 1-388): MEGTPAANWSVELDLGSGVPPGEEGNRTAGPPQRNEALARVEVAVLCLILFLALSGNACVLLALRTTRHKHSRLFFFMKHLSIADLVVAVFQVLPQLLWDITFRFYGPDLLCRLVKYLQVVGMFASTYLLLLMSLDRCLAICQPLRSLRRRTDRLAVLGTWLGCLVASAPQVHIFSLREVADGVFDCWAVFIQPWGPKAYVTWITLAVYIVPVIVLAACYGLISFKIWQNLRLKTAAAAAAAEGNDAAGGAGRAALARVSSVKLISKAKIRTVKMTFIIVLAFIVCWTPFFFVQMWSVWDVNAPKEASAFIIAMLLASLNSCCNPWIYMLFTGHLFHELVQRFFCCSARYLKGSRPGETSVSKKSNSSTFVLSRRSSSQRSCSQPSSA
Description: Oxytocin Receptor Binding
Female Sprague-Dawley rats weighing approximately 200-250 g are injected intramuscularly (i.m.) with 0.3 mg/kg of body weight of diethylstilbestrol (DES). The rats are sacrificed 18 hours later under pentobarbital anesthesia. The uteri are dissected out, cleaned of fat and connective tissues and rinsed in 50 ml of normal saline. The tissue pooled from six rats is homogenized in 50 ml of […] TriS.HCl, containing 0.5 mM dithiothreitol and 1.0 mM EDTA, adjusted to pH 7.4, using a polytron at setting 6 with three passes of 10 sec each. The homogenate is passed through two (2) layers of cheesecloth and the filtrate contrifuged at 1000×g for 10 min. The clear supernatant is removed and recentrifuged at 165,000×g for 30 min. The resulting pellet containing the oxytocin receptors is resuspended in 50.0 mM Tris.HCl containing 5.0 mM MgCl2 at pH 7.4, to give a protein concentration of 2.5 mg/ml of tissue suspension. This preparation is used in subsequent binding assays with [^3 H]Oxytocin.
Binding of 3,5-[^3 H]Oxytocin ([^3 H]OT) to its receptors is done in microtiter plates using [^3 H]OT, at various concentrations, in an assay buffer of 50.0 mM Tris.HCl, pH 7.4 and containing 5.0 mM MgCl2, and a mixture of protease inhibitors: BSA, 0.1 mg; aprotinin, 1.0 mg; 1,10-phenanthroline, 2.0 mg; […], 10.0 mg; and PMSF, 0.3 mg per 100 ml of buffer solution. Non-specific binding is determined in the presence of 1.0 uM unlabeled OT. The binding reaction is terminated after 60 min., at 22° C., by rapid filtration through glass fiber filters using a Brandel® cell harvester (Biomedical Research and Development Laboratories, Inc., Gaithersburg, Md.). Competition experiments are conducted at equilibrium using 1.0 nM [^3 H]OT and varying the concentration of the displacing agents. The concentrations of agent displacing 50% of [^3 H]OT at its sites (IC50) are calculated by a computer assisted LUNDON-2 program (LUNDON SOFTWARE INC., Ohio, U.S.A.).

Rat Hepatic V1 Receptors = target: T2, Rat Hepatic V1 Receptors (Rattus norvegicus, UniProt P30560); test: Binding Assay to Rat Hepatic V1 Receptors; details: Rat Hepatic V1 Receptors (no asterisk)
T2 construct: Rat liver plasma membranes expressing the vasopressin V1 receptor subtypes; from tissue; host or cells: rat liver plasma membranes
T2 sequence (P30560 whole entry): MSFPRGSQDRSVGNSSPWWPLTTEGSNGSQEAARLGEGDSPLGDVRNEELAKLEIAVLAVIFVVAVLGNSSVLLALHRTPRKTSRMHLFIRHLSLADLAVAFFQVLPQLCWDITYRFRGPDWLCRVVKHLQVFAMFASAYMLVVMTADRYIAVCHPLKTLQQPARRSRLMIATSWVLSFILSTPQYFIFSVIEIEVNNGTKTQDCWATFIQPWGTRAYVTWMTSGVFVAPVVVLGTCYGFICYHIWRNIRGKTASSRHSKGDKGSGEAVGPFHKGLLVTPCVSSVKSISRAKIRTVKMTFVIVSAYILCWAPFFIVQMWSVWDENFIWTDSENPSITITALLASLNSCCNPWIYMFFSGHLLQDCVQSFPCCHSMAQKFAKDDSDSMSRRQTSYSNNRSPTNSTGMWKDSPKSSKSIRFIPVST
Description: Binding Assay to Rat Hepatic V1 Receptors
Rat liver plasma membranes expressing the vasopressin V1 receptor subtypes are isolated by sucrose density gradient according to the method described by Lesko et al., (1973). These membranes are quickly suspended in 50.0 mM Tris.HCl buffer, pH 7.4, containing 0.2% bovine serum albumin (BSA) and 0.1 mM phenylmethylsulfonylfluoride (PMSF) and kept frozen at -70° C. until used in subsequent binding experiments. For binding experiments, the following is added to the wells of a ninety-six well format microtiter plate: 100 μl of 100.0 mM Tris.HCl buffer containing 10.0 mM MgCl2, 0.2% heat inactivated BSA and a mixture of protease inhibitors: leupeptin, 1.0 mg %; aprotinin, 1.0 mg %, 1,10-phenanthroline,2.0 mg %; trypsin inhibitor, 10.0 mg % and 0.1 mM PMSF, 20.0 μl of [phenylalanyl-3,4,5-^3 H] vasopressin (S.A. 45.1 Ci/mmole) at 0.8 nM, and the reaction initiated by the addition of 80 μl of tissue membranes containing 20 μg of tissue protein. The plates are kept undisturbed on the bench top at room temperature for 120 min. to reach equilibrium. Non-specific samples are assayed in the presence of 0.1 μM of the unlabeled antagonist phenylalanylvasopressin, added in 20.0 μl volume to a final incubation volume of 200 μl. Upon completion of binding, the content of each well is filtered off, using a Brandel® cell Harvester (Gaithersburg, Md.). The radioactivity trapped on the filter disk by the ligand-receptor complex is assessed by liquid scintillation counting in a Packard LS Counter, with an efficiency of 65% for tritium. The data are analyzed for IC50 values by the LUNDON-2 program for competition (LUNDON SOFTWARE, Ohio).

[1] = target: T3, Rat Kidney Medullary V2 Receptors (Rattus norvegicus, UniProt Q00788); test: Binding Assay to Rat Kidney Medullary V2 Receptors; details: Rat Kidney Medullary V2 Receptors (no asterisk)
T3 construct: Medullary tissues from rat kidneys are dissected out; from tissue; host or cells: rat kidney medulla membranes
T3 sequence (Q00788 whole entry): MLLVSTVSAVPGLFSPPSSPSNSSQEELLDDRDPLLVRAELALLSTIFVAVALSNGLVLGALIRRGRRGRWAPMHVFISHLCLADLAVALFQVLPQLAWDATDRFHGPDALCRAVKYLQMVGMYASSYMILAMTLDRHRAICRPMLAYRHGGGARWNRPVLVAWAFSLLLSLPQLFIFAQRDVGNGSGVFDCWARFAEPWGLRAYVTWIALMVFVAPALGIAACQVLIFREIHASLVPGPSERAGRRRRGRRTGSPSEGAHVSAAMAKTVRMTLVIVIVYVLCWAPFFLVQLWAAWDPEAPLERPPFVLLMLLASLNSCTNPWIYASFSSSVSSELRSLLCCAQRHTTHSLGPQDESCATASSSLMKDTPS
Description: Binding Assay to Rat Kidney Medullary V2 Receptors
Medullary tissues from rat kidneys are dissected out, cut into small pieces and let soak in a […] sodium chloride solution containing 1.0 mM EDTA with many changes of the liquid phase, until the solution is clear of blood. The tissue is homogenized in a 0.25M sucrose solution containing 1.0 mM EDTA and 0.1 mM PMSF using a Potter-Elvehjem homogenizer with a teflon pestle. The homogenate is filtered through several layers (4 layers) of cheese cloth. The filtrate is rehomogenized using a dounce homogenizer, with a tight fitting pestle. The final homogenate is contrifuged at 1500×g for 15 min. The nuclear pellet is discarded and the supernatant fluid recentrifuged at 40,000×g for 30 min. The resulting pellet formed contains a dark inner part with the exterior, slightly pink. The pink outer part is suspended in a small amount of 50.0 mM Tris.HCl buffer, pH 7.4. The protein content is determined by the Lowry's method (Lowry et al, J. Biol. Chem., 1953). The membrane suspension is stored at -70° C., in 50.0 mM Tris.HCl, containing 0.2% inactivated BSA and 0.1 mM PMSF in aliquots of 1.0 ml containing 10.0 mg protein per ml of suspension until use in subsequent binding experiments.
For binding experiments, the following is added in μl volume to wells of a 96 well format of a microtiter plate: 100.0 μl of 100.0 mM Tris.HCl buffer containing 0.2% heat inactivated BSA, 10.0 mM MgCl2 and a mixture of protease inhibitors: leupeptin, 1.0 mg %; aprotinin, 1.0 mg %; 1,10-phenanthroline, 2.0 mg %; trypsin inhibitor, 10.0 mg % and 0.1 mM PMSF, 20.0 μl of [^3 H]Arginine^8, vasopressin (S.A. 75.0 Ci/mmole) at 0.8 nM and the reaction initiated by the addition of 80.0 μl of tissue membranes (200.0 μg tissue protein). The plates are left undisturbed on the bench top for 120 min. to reach equilibrium. Non-specific binding is assessed in the presence of 1.0 μM of unlabeled ligand, added in 20 μl volume. For test compounds, these are solubilized in 50% dimethylsulfoxide (DMSO) and added in 20.0 μl volume to a final incubation volume of 200 μl. Upon completion of binding, the content of each well is filtered off, using a Brandel® cell Harvester (Gaithersburg, Md.). The radioactivity trapped on the filter disk by the ligand-receptor complex is assessed by liquid scintillation counting in a Packard LS Counter, with an efficiency of 65% for tritium. The data are analyzed for IC50 values by the LUNDON-2 program for competition (LUNDON SOFTWARE, Ohio).

Vasopressin V2 = Vasopressin V2 Antagonist Activity in Conscious Hydrated Rats; assay type: in vivo, rat; details: 10 mg/kg orally, N = 2, AVP 0.4 μg/kg intraperitoneally
Description: Vasopressin V2 Antagonist Activity in Conscious Hyrdated Rats
Conscious hydrated rats are treated with compounds under study from 0.1 to 100 mg/kg orally or vehicle. Two to four rats are used for each compound. One hour later, arginine vasopressin (AVP, antidiuretic hormone, ADH) dissolved in peanut oil is administered at 0.4 μg/kg intraperitoneally. Two rats in each test would not receive arginine vasopressin but only the vehicle (peanut oil) to serve as water-loading control. Twenty minutes later each rat is given 30 mL/kg of deionized water orally by gavage and is placed individually in a metabolic cage equipped with a funnel and a graduated glass cylinder to collect urine for four hours. Urine volume is measured and osmolality analyzed by use of a Fiske One-Ten osmometer (Fiske Assoc., Norwood, Mass. U.S.A.). Urinary sodium, potassium, and chloride are analyzed by use of ion-specific electrodes in a Beckman E3(Electrolyte 3) Analyzer.
In the following results, […] and decreased osmolality relative to AVP-control indicates activity.

Row | Structure (SMILES) | IC50 (oxytocin receptors) | inhibition at 10 µM (oxytocin receptors) | IC50 (Rat Hepatic V1 Receptors) | IC50 [1] | Urine Vol. (ml/4 hrs.) (Vasopressin V2) | Osmolality (mOsm/kg) (Vasopressin V2; urine)
1 | Cn1cc2c(n1)-c1sccc1N(C(=O)c1ccc(NC(=O)C3CCCCC3)cc1)CC2 [Example 6, N-[4-[[4,5-Dihydro-2-methylpyrazolo[3,4-d]thieno[3,2-b]-azepin-6(2H)-yl]carbonyl]phenyl]cyclohexane carboxamide] | 1.7 µM | 94% | 4.7 µM | 0.23 µM |  | 
2 | Cc1ccc(F)cc1C(=O)Nc1ccc(C(=O)N2CCc3cn[nH]c3-c3sccc32)cc1 [Example 2, N-[4-[(4,5-Dihydropyrazolo[3,4-d]thieno[3,2-b]azepin-6(1H)-yl)carbonyl]phenyl]-5-fluoro-2methylbenzamide] | 1.3 µM | 91% | 1.7 µM |  | 17.8 ml/4 hrs. | 429 mOsm/kg
